The data set deals with full-thickness back-skin wounds in db/db mice. Kind of data set: Retention of VEGF-A165 at the wound site. Format: in vivo, mouse. Particulars: 3 days after treatment, fibrin matrix with 200 ng/wound VEGF-A165 and 2 µM peptide vs without peptide, ELISA. The method, then:
Ten C57BLKS/J-m/Lepr db (db/db) mice (The Jackson laboratory) aged 10–11 weeks were used. Their backs were shaved and four full-thickness punch-biopsy wounds (6 mm in diameter) were created in each mouse. Directly after, fibrin matrices [80 µL in total, fibrinogen (10 mg/mL), 2 U/mL human thrombin, 4 U/mL factor XIII, 5 mM calcium chloride, 2 µM α2PI1–8-LAMA3_3043–3067, and 200 ng of recombinant human VEGF-A165] were polymerized on the wounds. To avoid drying of the matrices, the wounds were covered with non-adhering dressing (Adaptic, Johnson&Johnson), and then with adhesive film dressing (Hydrofilm, Hartmann). After 3 or 6 days, mice were sacrificed. The wounds were punched again, in order to recover the fibrinous matrices. Moreover, the tissue surrounding the wounds (2 mm beyond the wound margin) was removed. The tissue was transferred in 0.9 mL of tissue T-PER Tissue Protein Extraction Reagent (Thermo Scientific) containing 1 mg/mL of collagenase IV (Sigma-Aldrich), and homogenized with a tissue homogenizer. […] Recombinant human VEGF-A165 remaining in the fibrinous matrix and in the tissue surrounding the wound was quantified by ELISA (DuoSet, R&D Systems), using 200 ng of recombinant human VEGF-A165 as 100%. […]

Consider “NQEQVSPLRLVFALGTDGKKLRIKSKEKCNDGK [α2PI1–8-LAMA3_3043–3067]”, for which the “amount of VEGF-A165 remaining in the wounds” value is “significantly enhanced”.

For the origin of these results see PMC5986797, “Laminin heparin-binding peptides bind to several growth factors and enhance diabetic wound healing” (Nature Communications, 2018).
